Experimental data: patent US20240255515A1, “G4-SPECIFIC PEPTIDES AND METHODS OF IDENTIFYING THE SAME” (CITY UNIVERSITY OF HONG KONG, priority 2023, published 2024)
Where two headings read alike, the source gives them in different places.

Experiments:
[1] = test system: hTERC rG4 MUT construct in HeLa cells; test: Dual-luciferase reporter gene assay, hTERC rG4 MUT construct; type: cell-based, human; conditions: peptide 0, 100, 200 nM, 48 hours
Experimental: (§1) Wild-type or mutant hTERC rG4 construct was inserted into the HSV-TK promoter at the SacII restriction enzyme site of firefly/renilla dual luciferase reporter vector, psiCHECK-2. Then, wild-type or mutant reporter plasmid was transfected into Hela cells together with peptides (0, 100, 200 nM) using nucleofector. Each well of the 96-well black-wall optical plate was transfected with 30 ng plasmids. The luciferase reporter gene assays were performed after 48 hours of incubation using the dual-luciferase reporter assay kit. The microplate reader was used to measure luciferase activities with renilla luciferase serving as an internal control. The ratio of firefly to renilla was calculated to analyze the data. Three replicates were performed for each measurement, and the error bar was plotted based on the standard deviation. The P-value was calculated using two-tailed unpaired Student's t-tests to evaluate the significance of the samples.
After confirming that the rG4-targeting peptides can interact with rG4 structures in live cells, their effect on modulating rG4-mediated gene expression was examined in the example. […]

[2] = test system: hTERC rG4 WT construct in HeLa cells; test: Dual-luciferase reporter gene assay, hTERC rG4 WT construct; type: cell-based, human; conditions: peptide 0, 100, 200 nM, 48 hours
Experimental: as §1
After confirming that the rG4-targeting peptides can interact with rG4 structures in live cells, their effect on modulating rG4-mediated gene expression was examined in the example. Dual luciferase reporter gene assay was conducted in HeLa cells, in which hTERC rG4 WT motif (SEQ ID NO: 12) or hTERC rG4 MUT motif (SEQ ID NO: 13) was inserted in the 5′ untranslated region (5′ UTR) of the renilla luciferase gene region separately, and the firefly luciferase gene was used as a normalized gene (FIG. 1).

[3] = test system: hTERC rG4; test: Ligand-enhanced fluorescence assay; parameters: species or system human; conditions: 100 nM hTERC rG4
Experimental: HTERC rG4 (100 nM) in Tris-HCl buffer (25 mM Tris-HCl, pH 7.5, 150 mM KCl, and 1 mM MgCl2) was heated at 95° C. for 3 minutes and cooled down at 25° C. for 10 minutes. 10 μL of the peptide and rG4 mixture were incubated for 30 minutes at room temperature. Fluorescence spectroscopy was performed using a microplate reader in 384 well plate. The samples were excited at 394 nm and the emission spectra were detected at 610 nm. The plot was carried out by software.

[4] = test system: hTERC rG4 WT in HeLa cells; test: Cell imaging, co-transfection with hTERC rG4 WT; type: cell-based, human; conditions: 5 hours post-transfection, data not shown
Experimental: (§2) HeLa cells were seeded on a 3.5 cm confocal dish 1 day before transfection. FAM-labelled hTERC rG4 was heated to 75° C. for 5 minutes, annealed at 25° C., and then co-transfected with TAMRA-labelled peptide using LIPOFECTAMINE® 2000. Five hours post-transfection, the cells were stained with 50 nM deep red-fluorescent dye (labeling and tracking acidic organelles in live cells) for 30 minutes and 5 μg/mL Hoechst dye (staining nucleic acid) for 15 minutes. The images were monitored using a laser confocal scanning microscope. Fluorescence statistics of cells were analyzed using software.

[5] = test system: rG4s, dG4s (c-MYC, c-kit1, HRAS-1, hTelo) and non-G4 targets (scramble G-rich sequence, DNA hairpin, RNA hairpin); test: MST binding selectivity test with different rG4s, dG4s and non-G4 targets; conditions: data not shown
Experimental: (§3) The RNA was subjected to heat treatment at 75° C. for 5 minutes followed by cooling down to room temperature for 10 minutes for renaturation purposes. For binding affinity and selectivity test, reaction mixtures containing 50 nM FAM-labelled RNA, 150 mM KCl, 1 mM MgCl2, 25 mM Tris-HCl (pH 7.5) and varying concentrations of peptide were prepared and incubated at 37° C. for 30 minutes. The samples were then loaded into MST capillary tubes, and the measurements were taken at 25° C. using blue light mode and the binding affinity mode. The data obtained from these measurements were analyzed using MST nano temper analysis (nta) analysis software. The curve fitting and dissociation constant (Kd) determination were carried out by software using the one site-specific binding model.

[6] = test system: hTERC rG4 wild-type (WT); test: Filter binding assay, hTERC rG4 wild-type; parameters: species or system human; conditions: data not shown
Experimental: (§4) In the binding affinity and selectivity tests, reaction mixtures containing 5 nM biotin-labeled RNA, 25 mM Tris-HCl (pH 7.5), 150 mM KCl, 1 mM MgCl2 and varying concentrations of peptides were prepared in 50 μL and incubated at 37° C. for 30 minutes before loaded onto an apparatus containing a nitrocellulose membrane (top) and nylon membrane (bottom). The nylon membrane was rinsed with 0.5× Tris-borate-EDTA (TBE) buffer for 5 minutes, and the nitrocellulose membrane was rinsed with 0.5 M KOH for 15 minutes at 4° C. and then rinsed with 0.5×TBE buffer for one time prior to use. The membranes were washed with binding buffer for three times before and after applying the sample to the apparatus. The crosslinking step was carried out by exposing the membranes to UV irradiation at 254 nm, 120,000 microjoules/cm^2 for 5 minutes. The results were detected using a chemiluminescent nucleic acid detection module kit, and the scanned by an imaging system.

[7] = target: hTERC rG4; test: Microscale thermophoresis (MST) binding assay; parameters: species or system human; conditions: 50 nM FAM-labelled RNA, 150 mM KCl
Experimental: as §3

[8] = test system: hTERC rG4 mutant (MUT); test: Filter binding assay, hTERC rG4 mutant; parameters: species or system human; conditions: data not shown
Experimental: as §4

[9] = test system: 5' FAM, 3' TAMRA labelled hTERC rG4; test: FRET melting assay; type: binding, human; conditions: increasing peptide concentration, 0-2 μM; 0.2 μM rG4
Experimental: FRET-melting assay was performed with 5′ FAM, 3′ TAMRA labelled hTERC rG4. The oligonucleotides were prepared at 0.2 μM, and the peptides were prepared at 0, 0.2, 0.4, 1 or 2 μM final concentration. The samples were excited at 492 nm and the emission spectra were detected at 516 nm in a buffer containing 10 mM lithium cacodylate and 1 mM KCl. The rG4 was heated at 95° C. for 5 minutes and cooled down in room temperature to refold for 10 minutes before adding the peptides. The signal was monitored by real-time PCR detection system with a procedure of 30 minutes at 25° C., then an increase of 0.5° C. every minute until 95° C. Each experimental condition was tested in three duplicates in a volume of 25 μL for each sample. The data were blanked, averaged and smoothed over 2° C. The plot was carried out by software.

[10] = test system: hTERC rG4 MUT in HeLa cells; test: Cell imaging, co-transfection with hTERC rG4 MUT; type: cell-based, human; conditions: 5 hours post-transfection, data not shown
Experimental: as §2

pep71: negative control peptide with amino acid sequence AHPLTKPPKYHH (SEQ ID NO: 5) [reference compound]
normalized luciferase activity, MUT construct [1]: did not impact
normalized luciferase activity, WT construct [2]: did not impact

RHAU53: positive control peptide reported to interact with rG4s; sequence SMHPGHLKGREIGMWYAKKQGQKNKEAERQERAVVHMDERREEQIVQLLNSVQA K (SEQ ID NO: 4) (SMHPGHLKGREIGMWYAKKQGQKNKEAERQERAVVHMDERREEQIVQLLNSVQAK)
fluorescence signal / conformational change of G4 upon peptide binding [3]: exhibited a similar result
normalized luciferase activity, WT construct [2]: effects of both tandem and cyclic pep11 were comparable to that of RHAU53

two pep11 domains linked by (GTGSGA)3: TKRKHPHRRKYRGTGSGAGTGSGAGTGSGATKRKHPHRRKYR (SEQ ID NO: 3) [tandem pep11]
colocalization of TAMRA-labelled peptide with hTERC rG4 WT foci in live cells [4]: clear colocalization of TAMRA signals with the fluorescent foci
binding selectivity among rG4s, dG4s and non-G4s [5]: bound to other rG4s but not to non-G4s and weakly to dG4s
binding to hTERC rG4 WT [6]: bound to hTERC rG4 WT
Kd ([7]; read-out: Kd, binding affinity to hTERC rG4): 449 ± 62 nM
binding to hTERC rG4 MUT [8]: not MUT
melting temperature of hTERC rG4 [9]: Higher melting temperatures
normalized luciferase activity, WT construct [2]: the inhibition extended with increasing concentration
foci in cells transfected with hTERC rG4 MUT [10]: few foci were observed

de novo G4-binding peptide with amino acid sequence TKRKHPHRRKYR (SEQ ID NO: 1) [pep11]
binding selectivity among rG4s, dG4s and non-G4s [5]: only rG4s exhibited observable binding
Kd ([7]; read-out: Kd, binding to hTERC rG4): 1370 ± 220 nM
melting temperature of hTERC rG4 [9]: Higher melting temperatures
